Test results: publication PMC9268429, “Liposomal Form of 2,4-Dinitrophenol Lipophilic Derivatives as a Promising Therapeutic Agent for ATP Synthesis Inhibition” (Nanomaterials, 2022)
Entries after “also recorded” stand apart in the source; their conditions may differ. Where two headings read alike, the source gives them in different places.

Experiments:
in vitro = type: cell-based, mouse; conditions: mouse; AML12, 24 h incubation, WST-1, free compounds in 1% DMSO; read-out: IC50 (cytotoxicity)
Protocol: (§1) Murine breast cancer cell line expressing luciferase (4T1-Luc) and hepatocytes isolated from the normal liver of a 3-month-old mouse (AML12) were purchased from ATCC, (CRL-2539-LUC2 and CRL-2254). The cells were cultivated in RPMI 1640 or DMEM-F12 with 10% FBS, 4.5 g/L glucose, 100 U/mL penicillin, 100 µg/mL streptomycin and 0.25 µg/mL Gibco amphotericin at 37 °C, 5% CO2.
(§2) 4T1-Luc or AML12 cells were seeded in a 96-well plate (1 × 10^4 cells/well) in 200 µL/well of complete RPMI or DMEM-F12 medium and incubated at 37 °C with 5% CO2 for 48 h. Then, the medium was replaced with 100 µL/well RPMI or DMEM-F12 medium in the absence (control) or presence of various amounts of the tested compounds and incubated at 37 °C with 5% CO2 for 24 h; 10 µL/well WST-1 solution (CELLPRO-RO Roche, St. Louis, MO, USA) was added to each well and incubated under culture conditions for 2 h. The absorbance of the samples was measured at 450 nm.

4T1-Luc cells [1] = test: cells; type: cell-based, murine; conditions: Mus musculus, read-out: IC50 (cytotoxicity)
Protocol: as §1, §2

[2] = type: physicochemical; conditions: octanol/distilled water (pH 5.5), mean ± StD
Protocol: Lipophilicity of the obtained 2,4-DNP derivatives was measured by octanol–water equilibrium method. Before the experiment, we mixed octanol and water in a flask, shook it vigorously, and then waited for the two phases separation. After reaching of equilibrium, the two phases are mutually saturated with one another. Next, 0.5 mg of each test compound was dissolved in 1 mL of octanol phase, and then 1 mL of distillated water phase was added (pH 5.5) and properly stirred for 1 min three times. The mixture was incubated under vigorous stirring for 1 h. Next, the mixture was centrifugated to separate octanol–water phases. The concentration of the compound was determined in octanol and water using HPLC method. The octanol–water partition coefficient was estimated as follows:(1) LogP=Log[C]octanol/[C]water
Concentration of 2,4-DNP and its esters was measured using high-performance liquid chromatography (HPLC) (Knauer Smart line, Berlin, Germany) with UV-detector and a reversed-phase shim-pack 100-5-C18 column (Kromasil, […], particle size 5 μm). The mobile phase was a mixture of acetonitrile and 0.1% citric acid water solution (60/40, v/v). The mobile phase flow-rate was 0.8 mL/min, the injection volume was […], and the detection wavelength was set at 275 nm. Chromatograms were analyzed using ChromGate version 3.3.2 software (Berlin, Germany). The retention time is 4.5 min for 2,4-DNP and 6.5 min for esters.

luciferase = luciferase (Photinus pyralis, UniProt P08659); test: Control: addition to the luciferin–luciferase mixture; type: biochemical; conditions: 200 µM added to the luciferin–luciferase mixture; data are not presented
Sequence of luciferase (P08659 whole entry): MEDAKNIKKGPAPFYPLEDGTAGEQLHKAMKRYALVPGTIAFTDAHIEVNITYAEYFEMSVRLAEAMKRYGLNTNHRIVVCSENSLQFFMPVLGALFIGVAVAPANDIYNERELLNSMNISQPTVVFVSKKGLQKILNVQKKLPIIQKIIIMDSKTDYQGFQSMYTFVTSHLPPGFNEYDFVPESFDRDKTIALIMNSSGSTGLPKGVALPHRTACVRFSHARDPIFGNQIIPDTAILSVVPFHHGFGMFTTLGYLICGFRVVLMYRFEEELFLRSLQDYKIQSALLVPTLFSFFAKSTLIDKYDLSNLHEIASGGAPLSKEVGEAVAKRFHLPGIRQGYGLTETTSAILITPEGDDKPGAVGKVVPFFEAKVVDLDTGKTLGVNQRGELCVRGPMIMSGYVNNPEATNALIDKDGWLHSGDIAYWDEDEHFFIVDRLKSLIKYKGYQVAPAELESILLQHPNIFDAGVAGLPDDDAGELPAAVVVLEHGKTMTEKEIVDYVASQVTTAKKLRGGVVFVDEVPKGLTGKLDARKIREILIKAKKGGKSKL

AML12 cells = test: in vitro; type: cell-based, mouse; conditions: AML12, 24 h incubation, WST-1, free compounds in 1% DMSO; read-out: IC50 (cytotoxicity)
Protocol: as §1, §2

[3] = pH 7.4
Protocol: Procedure: All samples were dispersed in 10 mM PBS (pH = 7. 4). Then the aliquots were incubated at a room tempera-
ture and at 65 °C for 1 h. After that we made several TLC for each sample representing heated and non-heated sub-

4T1-Luc cells [4] = type: cell-based, murine; conditions: 200 µM, 1% DMSO; for ATP synthesis inhibition (decrease of luminescence): free compounds, 2 h and 4 h
Protocol: ATP synthesis in real time in vitro was monitored by modified luciferin–luciferase assay using 4T1-Luc cells expressing luciferase. Briefly, 4T1-Luc cells were seeded in black 96-well plates (Greiner, France) (1 × 10^4 cells/well) 48 h before the experiment. Cell medium was replaced with the mixtures (150 µL/well) of D-luciferin (150 µg/mL, saturating concentration) alone (control) and with examined substance (200 µM of free 2,4-DNP or its derivatives or their liposomal forms) in RPMI 1640 medium (10% FBS, 4.5 g/L glucose, 100 U/mL penicillin, 100 µg/mL streptomycin и 0.25 µg/mL Gibco amphotericin), plate was put into the Luminometer chamber (EnSpire multimode plate reader, Perkin Elmer, USA), and kinetic of luciferin–luciferase reaction was detected at 37 °C (flashes/time 0.1 s). 2,4-DNP esters were dissolved in DMSO before the use. The total concentration of DMSO in final solution per well was 1%.
The inhibition effect was expressed as (3) Decrease of luminescence=[RLU]max−[RLU]t/[RLU]max×100%, where [RLU]max—relative luminescence units at the maximum of the kinetic profile; [RLU]t—relative luminescence units at certain time point.

SMILES	LogPoct [2]	ATP synthesis inhibition (decrease of luminescence) (4T1-Luc cells [4])	ATP level after free carboxylic acids (4T1-Luc cells [4])	also measured
O=[N+]([O-])c1ccc(O)c([N+](=O)[O-])c1 [2,4-DNP, 2,4-dinitrophenol]	1.61 ± 0.30	–	–	IC50 at 24 h (in vitro): 500 to 600 µM; IC50 (4T1-Luc cells [1]; 24 h): ~400 µM; Luciferase activity (luciferase): did not influence the luciferase activity
CCC(=O)Oc1ccc([N+](=O)[O-])cc1[N+](=O)[O-] [2,4-DNP-C3, 2,4-Dinitrophenol Propionic Acid Ester]	1.91 ± 0.24	higher inhibition effects in comparison to the free 2,4-DNP	–	IC50 (AML12 cells): ~200 µM; Ester stability (hydrolysis) [3]: most unstable ester
CCCCCC(=O)Oc1ccc([N+](=O)[O-])cc1[N+](=O)[O-] [2,4-DNP-C6, 2,4-Dinitrophenol Caproic Acid Ester]	3.07 ± 0.31	higher inhibition effects in comparison to the free 2,4-DNP; also recorded: sustained inhibition of ATP synthesis	–	IC50 (AML12 cells): ~200 µM
CCCCCCCCCCCCCCCC(=O)Oc1ccc([N+](=O)[O-])cc1[N+](=O)[O-] [2,4-DNP-C16, 2,4-DNP Palmitic Acid Ester]	5.18 ± 0.79	neglectable decrease in the ATP level	–	IC50 (in vitro): ~200 µM; IC50 (4T1-Luc cells [1]; 24 h incubation, WST-1, free compounds in 1% DMSO): 100 to 150 µM
CCCCCC(=O)O [caproic acid, Hexanoic acid, reference compound]	–	–	did not show an increase in the ATP level	–
CCCCCCCCCCCCCCCC(=O)O [palmitic acid, Palmitic acid, reference compound]	–	–	did not show an increase in the ATP level	–
CCC(=O)O [propionic acid, Propionic acid, reference compound]	–	–	did not show an increase in the ATP level	–
